# From patent publication US12692249B2, “WDR5 inhibitors and modulators” (Vanderbilt University, priority 2019, dated 2026)
# Like-named read-outs stand apart in the source and are kept apart here.
# Key:
# [1] = target: WDR5 (Homo sapiens, UniProt P61964); experiment: TR-FRET competition binding assay, displacement of 10mer-Thr-FAM MLL peptide probe from His-tagged WDR5; conditions: WDR5-His tag (residues 24-334) 2 nM; 10mer-Thr-FAM 150 nM; 60 min, room temperature; read-out: Ki for Inhibition of WDR5 by TR-FRET assay
# [2] = tested on: MV4:11 human cancer cell lines; experiment: Cellular viability / anti-proliferative assay, CellTiter-Glo, 5 day protocol; assay type: cell-based; conditions: Homo sapiens, MV4-11, 120 h, read-out: GI50 on cellular proliferation of MV4:11 human cancer cell lines
# Summary of the method: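 MV-4-11 cells in IMDM with 10% FBS, 200 cells/well, exposed 5 days to 22 two-fold dilutions from 30 μM, final DMSO 0.3%. Viability read by CellTiter-Glo luminescence; GI50 from sigmoidal dose-response fit, mean of at least two replicates.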
# [3] = MV4:11 cells, 5 day incubation, CellTiter-Glo, mean of at least two replicates
Structure (SMILES),Ki [1] [nM],"GI50 [2, 3] [nM]",GI50 [2] [nM]
"CCc1cc(C(=O)NC2CN(C(=O)C3CCOCC3)C2)c2nccc(N3CCc4c(cc(Cn5ccnc5)cc4-c4cn(C)nc4C(F)(F)F)C3=O)c2c1 [Example 223, 4-(7-((1H-Imidazol-1-yl)methyl)-5-(1-methyl-3-(trifluoromethyl)-1H-pyrazol-4-yl)-1-oxo-3,4-dihydroisoquinolin-2(1H)-yl)-6-ethyl-N-(1-(tetrahydro-2H-pyran-4-carbonyl)azetidin-3-yl)quinoline-8-carboxamide]",< 0.02,< 20,–
"CCc1cc(C(=O)NCc2cnccn2)c2nccc(N3CCc4c(cc(Cn5ccnc5)cc4-c4cn(C)nc4C(F)(F)F)C3=O)c2c1 [Example 173, 4-(7-((1H-Imidazol-1-yl)methyl)-5-(1-methyl-3-(trifluoromethyl)-1H-pyrazol-4-yl)-1-oxo-3,4-dihydroisoquinolin-2(1H)-yl)-6-ethyl-N-(pyrazin-2-ylmethyl)quinoline-8-carboxamide]",< 0.02,< 20,–
"COc1cc(N2CCOCC2)c2nccc(N3CCc4c(cc(Cn5ccnc5)cc4-c4cn(C)nc4C(F)(F)F)C3=O)c2c1 [Example 30, 7-((1H-Imidazol-1-yl)methyl)-2-(6-methoxy-8-morpholinoquinolin-4-yl)-5-(1-methyl-3-(trifluoromethyl)-1H-pyrazol-4-yl)-3,4-dihydroisoquinolin-1(2H)-one]",< 0.02,< 20,–
"CCc1cc(CNC(C)=O)c2nccc(N3CCc4c(cc(Cn5ccnc5)cc4-c4cn(C)nc4C(F)(F)F)C3=O)c2c1 [Example 240, N-((4-(7-((1H-Imidazol-yl)methyl)-5-(1-methyl-3-(trifluoromethyl)-1H-pyrazol-4-yl)-1-oxo-3,4-dihydroisoquinolin-2(1H)-yl)-6-ethylquinolin-8-yl)methyl)acetamide]",< 0.02,23,–
"CCc1cc(COc2ccncc2)c2nccc(N3CCc4c(cc(Cn5ccnc5)cc4-c4cn(C)nc4C(F)(F)F)C3=O)c2c1 [Example 187, 7-((1H-Imidazol-1-yl)methyl)-2-(6-ethyl-8-((pyridin-4-yloxy)methyl)quinolin-4-yl)-5-(1-methyl-3-(trifluoromethyl)-1H-pyrazol-4-yl)-3,4-dihydroisoquinolin-1(2H)-one]",< 0.02,43,–
"COc1cc(N2CCN(C)CC2)c2nccc(N3CCc4c(cc(Cn5ccnc5)cc4-c4cn(C)nc4C(F)(F)F)C3=O)c2c1 [Example 31, 7-((1H-Imidazol-1-yl)methyl)-2-(6-methoxy-8-(4-methylpiperazin-1-yl)quinolin-4-yl)-5-(1-methyl-3-(trifluoromethyl)-1H-pyrazol-4-yl)-3,4-dihydroisoquinolin-1(2H)-one]",< 0.02,< 20,–
"CCc1cc(C(=O)NCC2CN(C(=O)c3ccncc3)C2)c2nccc(N3CCc4c(cc(Cn5ccnc5)cc4-c4cn(C)nc4C(F)(F)F)C3=O)c2c1 [Example 219, 4-(7-((1H-Imidazol-1-yl)methyl)-5-(1-methyl-3-(trifluoromethyl)-1H-pyrazol-4-yl)-1-oxo-3,4-dihydroisoquinolin-2(1H)-yl)-6-ethyl-N-((1-isonicotinoylazetidin-3-yl)methyl)quinoline-8-carboxamide]",< 0.02,< 20,–
"COc1ccc2c(c1)c(N1CCc3c(cc(Cn4ccnc4C)cc3-c3cn(C)nc3C(F)(F)F)C1=O)c(C)n2C [Example 80, 2-(5-Methoxy-1,2-dimethyl-1H-indol-3-yl)-7-((2-methyl-1H-imidazol-1-yl)methyl)-5-(1-methyl-3-(trifluoromethyl)-1H-pyrazol-4-yl)-3,4-dihydroisoquinolin-1(2H)-one]",0.029,61,–
"CCc1cc(N2CCn3cnnc3C2)c2nccc(N3CCc4c(cc(Cn5ccnc5)cc4-c4cn(C)nc4C(F)(F)F)C3=O)c2c1 [Example 208, 7-((1H-Imidazol-1-yl)methyl)-2-(8-(5,6-dihydro-[1,2,4]triazolo[4,3-a]pyrazin-7(8H)-yl)-6-ethylquinolin-4-yl)-5-(1-methyl-3-(trifluoromethyl)-1H-pyrazol-4-yl)-3,4-dihydroisoquinolin-1(2H)-one]",< 0.02,55,–
"CCc1cc(C(=O)NCCNC(=O)c2cnccn2)c2nccc(N3CCc4c(cc(Cn5ccnc5)cc4-c4cn(C)nc4C(F)(F)F)C3=O)c2c1 [Example 209, 4-(7-((1H-Imidazol-1-yl)methyl)-5-(1-methyl-3-(trifluoromethyl)-1H-pyrazol-4-yl)-1-oxo-3,4-dihydroisoquinolin-2(1H)-yl)-6-ethyl-N-(2-(pyrazine-2-carboxamido)ethyl)quinoline-8-carboxamide]",< 0.02,< 20,–
"CNC(=O)c1cc(OC)cc2c(N3CCc4c(cc(Cn5ccnc5)cc4-c4cn(C)nc4C(F)(F)F)C3=O)cc(C)nc12 [Example 183, 4-(7-((1H-Imidazol-1-yl)methyl)-5-(1-methyl-3-(trifluoromethyl)-1H-pyrazol-4-yl)-1-oxo-3,4-dihydroisoquinolin-2(1H)-yl)-6-methoxy-N,2-dimethylquinoline-8-carboxamide]",< 0.02,< 20,–
COc1cc(CN2CCCCC2)c2nccc(N3CCc4c(cc(Cn5ccnc5)cc4-c4cn(C)nc4C(F)(F)F)C3=O)c2c1 [Example 128],0.038,–,< 20
"CCn1cc(-c2cc(Cn3ccnc3)cc3c2CCN(c2cncc4ccc(C)cc24)C3=O)c(C(F)(F)F)n1 [Example 54, 7-((1H-Imidazol-1-yl)methyl)-5-(1-ethyl-3-(trifluoromethyl)-1H-pyrazol-4-yl)-6′-methyl-3,4-dihydro-1H-[2,4′-biisoquinolin]-1-one]",0.028,71,–
"CCc1cnc2cc(C)cc(N3CCc4c(cc(Cn5ccnc5)cc4-c4cn(C)nc4C(F)(F)F)C3=O)c2c1 [Example 129, 7-((1H-Imidazol-1-yl)methyl)-2-(3-ethyl-7-methylquinolin-5-yl)-5-(1-methyl-3-(trifluoromethyl)-1H-pyrazol-4-yl)-3,4-dihydroisoquinolin-1(2H)-one]",0.029,–,35
"Cc1cc2c(N3CCc4c(cc(Cn5ccnc5)cc4-c4cn(C)nc4C(F)(F)F)C3=O)cccc2n1C [Example 26, 7-((1H-Imidazol-1-yl)methyl)-2-(1,2-dimethyl-1H-indol-4-yl)-5-(1-methyl-3-(trifluoromethyl)-1H-pyrazol-4-yl)-3,4-dihydroisoquinolin-1(2H)-one]",0.087,369,–
"CCc1cc(-c2cnn(C)c2)c2nccc(N3CCc4c(cc(Cn5ccnc5)cc4-c4cn(C)nc4C(F)(F)F)C3=O)c2c1 [Example 232, 7-((1H-Imidazol-1-yl)methyl)-2-(6-ethyl-8-(1-methyl-1H-pyrazol-4-yl)quinolin-4-yl)-5-(1-methyl-3-(trifluoromethyl)-1H-pyrazol-4-yl)-3,4-dihydroisoquinolin-1(2H)-one]",< 0.02,38,–
"Cc1ccc2nccc(N3CCc4c(cc(Cn5ccnc5)cc4-c4cn(C)nc4C(F)(F)F)C3=O)c2c1 [Example 15, 7-((1H-Imidazol-1-yl)methyl)-5-(1-methyl-3-(trifluoromethyl)-1H-pyrazol-4-yl)-2-(6-methylquinolin-4-yl)-3,4-dihydroisoquinolin-1(2H)-one]",0.026,64,–
"CCc1nc2cccc(N3CCc4c(cc(Cn5ccnc5)cc4-c4cn(C)nc4C(F)(F)F)C3=O)c2cc1C [Example 119, 7-((1H-Imidazol-1-yl)methyl)-2-(2-ethyl-3-methylquinolin-5-yl)-5-(1-methyl-3-(trifluoromethyl)-1H-pyrazol-4-yl)-3,4-dihydroisoquinolin-1(2H)-one]",0.057,457,–
"COc1ccc(N2CCc3c(cc(Cn4ccnc4C)cc3-c3cn(C)nc3C(F)(F)F)C2=O)c2cc(C)cnc12 [Example 11, 2-(8-Methoxy-3-methylquinolin-5-yl)-7-((2-methyl-1H-imidazol-1-yl)methyl)-5-(1-methyl-3-(trifluoromethyl)-1H-pyrazol-4-yl)-3,4-dihydroisoquinolin-1(2H)-one]",0.035,3890,–
"COc1cc(CN2CCCC2)c2nccc(N3CCc4c(cc(Cn5ccnc5)cc4-c4cn(C)nc4C(F)(F)F)C3=O)c2c1 [Example 138, 7-((1H-Imidazol-1-yl)methyl)-2-(6-methoxy-8-(pyrrolidin-1-ylmethyl)quinolin-4-yl)-5-(1-methyl-3-(trifluoromethyl)-1H-pyrazol-4-yl)-3,4-dihydroisoquinolin-1(2H)-one]",< 0.02,< 20,–
"COc1cnc2c(c1)C(N1CCc3c(cc(Cn4ccnc4C)cc3-c3cn(C)nc3C(F)(F)F)C1=O)CCC2 (stereo not shown) [Example 65, 2-(3-Methoxy-5,6,7,8-tetrahydroquinolin-5-yl)-7-((2-methyl-1H-imidazol-1-yl)methyl)-5-(1-methyl-3-(trifluoromethyl)-1H-pyrazol-4-yl)-3,4-dihydroisoquinolin-1(2H)-one]",< 0.02,< 20,–
"COc1cc(Br)c2nccc(N3CCc4c(cc(Cn5ccnc5)cc4-c4cn(C)nc4C(F)(F)F)C3=O)c2c1 [Example 29, 7-((1H-Imidazol-1-yl)methyl)-2-(8-bromo-6-methoxyquinolin-4-yl)-5-(1-methyl-3-(trifluoromethyl)-1H-pyrazol-4-yl)-3,4-dihydroisoquinolin-1(2H)-one]",< 0.02,65,–
"CCc1cc(C(=O)NCC2CN(C(C)=O)C2)c2nccc(N3CCc4c(cc(Cn5ccnc5)cc4-c4cn(C)nc4C(F)(F)F)C3=O)c2c1 [Example 218, 4-(7-((1H-Imidazol-1-yl)methyl)-5-(1-methyl-3-(trifluoromethyl)-1H-pyrazol-4-yl)-1-oxo-3,4-dihydroisoquinolin-2(1H)-yl)-N-((1-acetylazetidin-3-yl)methyl)-6-ethylquinoline-8-carboxamide]",< 0.02,21,–
